Results on one compound are retold here after US20210106567A1, “COMPOSITIONS AND METHODS FOR INHIBITING CARP-1 BINDING TO NEMO” (United States Government As Represented By The Department …, priority 2019, published 2021).

The structures appear in SMILES notation.

Experiment [1] has as its target T1, Flag-CARP-1 (546-580) binding with Biotin-NEMO (221-261) (Homo sapiens, UniProt Q8IX12).
T1 construct: Flag-tagged CARP-1 (546-580); purchased Peptides America, Fairfax, Va; host or cells: chemical synthesis
Kind of experiment: AlphaLISA assay of CARP-1/NEMO peptide binding (HTS format). As to conditions: biphasic, read-out: IC50, inhibition of binding of CARP-1 (546-580) with NEMO (221-261) peptide. The source says: The predicted kinetics of interaction of CARP-1 (551-600; SEQ ID NO: 5) and NEMO (221-261; SEQ ID NO: 2) epitopes was further validated by utilizing respective, chemically synthesized peptides to determine their in-solution binding by SPR technology (Sekhar et al. (2019) Cancers (Basel) 11). […] On the collective basis of the data in FIG. 1, and biophysical and SPR data above, in vitro binding assays were developed utilizing chemically synthesized CARP-1 and NEMO peptides. In the first instance, CARP-1 (551-580; SEQ ID NO: 6) and NEMO (221-261; SEQ ID NO: 2) peptides were used to carry out buffer optimization and DMSO tolerance of the assay. […] Presence of 0.01% tween minimizes non-specific binding and generates higher reproducibility as noted by smaller error bars in FIG. 15A. […]
The AlphaLISA assay for high throughput screening: For screening of a library of chemical compounds, an […] assay was developed and optimized for use in 384-well format (SAMDI Tech, Chicago, Ill.). […] The assay signal (Fluorescence) was measured at 680 nm excitation and 615 nm emission wavelengths to determine assay robustness and DMSO tolerance. […] The plates were read on a Pherastar FS plate reader. […] Those wells were further analyzed to investigate the 8 compounds individually in duplicate.

In experiment [2] the target is T2, His-TAT-HA-CARP-1 (551-580) binding with Gst-NEMO (221-261) (Homo sapiens, UniProt Q8IX12).
T2 construct: His-TAT-HA-CARP-1 (551-580); made in house; host or cells: E. coli BL21
T2 sequence (Q8IX12 551-580 limits assumed): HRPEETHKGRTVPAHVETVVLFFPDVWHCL
Kind of experiment: Pull-down and Western blot with E. coli expressed peptides. Particulars: then washed. The procedure:
The biochemical mechanism of inhibition of CARP-1 (551-580; SEQ ID NO: 6) binding with NEMO (221-261; SEQ ID NO: 2) by SNI-1 was assessed. E. coli expressed Gst-NEMO (221-261; SEQ ID NO: 2) and His-TAT-HA-CARP-1 (551-580; SEQ ID NO: 6) peptides in IP-WB assays were used. […] Since Adriamycin activates ATM to regulate canonical NF-κB and DSB repair pathways, it remains to be clarified whether CARP-1 regulates RIPK1 signaling dependent and/or independent of ATM.
The cells were lysed to prepare protein extracts.

Experiment [3] relates to parental and chemo-resistant human and murine TNBC cells and parental renal cancer cells. Kind of experiment: Cytokine ELISA of culture media, chemotherapy-induced secretion. As to conditions: SNI-1 with Adriamycin or Cisplatin. Type of experiment: cell-based.

T1 sequence (Q8IX12 546-580 limits assumed): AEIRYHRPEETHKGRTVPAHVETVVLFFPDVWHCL

With `Cc1ccc(-n2nnnc2SCC(=O)c2ccc(O)c(O)c2)cc1` [SNI-1, 1-(3,4-dihydroxyphenyl)-2-{(1-(4-methylphenyl)-1H-tetrazol-5-yl)thio}ethanone], the 50% inhibitory concentration (IC50) in experiment [1] was about 300 nM. Also, the “binding of Gst-NEMO (221-261) with His-TAT-HA-CARP-1 (551-580) peptide” value in experiment [2] (compound incubated with CARP-1 peptide immobilized on Ni-NTA beads) is recorded as “abrogated binding”. The “binding of His-TAT-HA-CARP-1 (551-580) with Gst-NEMO (221-261) peptide” value in experiment [2] (compound incubated with Gst-NEMO peptide immobilized on Gst sepharose beads) is “failed to abrogate binding”. For the same compound, the “secretion of chemotherapy-induced TNFα, IL-8, and IL-1β” value in experiment [3] is listed as “robust decline in secretion”.
